Assay results published in ChEMBL document CHEMBL3885861, “Open TG-GATES”.

Organism: Rattus norvegicus
Assay: Open TG-GATES - Regimen: Single
Assay type: toxicity, organism-based, Sprague-Dawley
Design: regimen Single, gender Male, age 6 weeks
Conditions: in vivo, po, route gavage; for TC / TG / TP / gamma-GTP / A/G / ALP / ALT / AST / BUN / CRE / Ca / Cl / GLC / IP / K / LDH / Na / PL / RALB: tissue Plasma; for APTT / Bas / Eos / Fbg / Hb / Ht / Lym / MCH / MCHC / MCV / Mono / Neu / PT / Plat / RBC / Ret / WBC: tissue Blood; for KIDNEY_L / KIDNEY_R / KIDNEY_TOTAL: tissue Kidney; for LIVER: tissue Liver
[1] = 300 mg/kg, 24 h, dose level Low
[2] = 1000 mg/kg, 3 h, dose level Middle
[3] = 1000 mg/kg, 6 h, dose level Middle
[4] = 1000 mg/kg, 9 h, dose level Middle
[5] = 1000 mg/kg, 24 h, dose level Middle
[6] = 2000 mg/kg, 3 h, dose level High
[7] = 2000 mg/kg, 6 h, dose level High
[8] = 2000 mg/kg, 9 h, dose level High
[9] = 2000 mg/kg, 24 h, dose level High

## O=C(O)c1ccccc1Nc1ccccc1 [FENAMIC ACID]
[1]
  TC: 74.8 mg/dL
  TG: 88 mg/dL
  TP: 5.6 g/dL
  gamma-GTP: 1 IU/L
[2]
  TERMINAL_BW: 208.9 g
  APTT: 17.2 s
  Bas: 0.8%
  Eos: 0.6%
  Fbg: 253.8 mg/dL
  Hb: 13.4 g/dL
  Ht: 40.2%
  Lym: 71.4%
  MCH: 20.5 pg
  MCHC: 33.5%
  MCV: 61.1 fL
  Mono: 2.8%
  Neu: 24.4%
  PT: 14.1 s
  Plat: 115 x10_4/uL
  RBC: 657.4 x10_4/ul
  Ret: 8%
  WBC: 93.3 x10_2/uL
  KIDNEY_L: 0.9 g
  KIDNEY_R: 0.9 g
  KIDNEY_TOTAL: 1.8 g
  LIVER: 7.8 g
  A/G: 0.9
  ALP: 1837.8 IU/L
  ALT: 38.4 IU/L
  AST: 75.4 IU/L
  BUN: 9.6 mg/dL
  CRE: 0.1 mg/dL
  Ca: 11 mg/dL
  Cl: 105.2 meq/L
  GLC: 169.2 mg/dL
  IP: 10.3 mg/dL
  K: 4 meq/L
  LDH: 71.8 IU/L
  Na: 144 meq/L
  PL: 96.4 mg/dL
  RALB: 2.5 g/dL
  TC: 49 mg/dL
  TG: 37 mg/dL
  TP: 5.4 g/dL
  gamma-GTP: 1 IU/L
[3]
  TERMINAL_BW: 203 g
  APTT: 17 s
  Bas: 0.8%
  Eos: 1%
  Fbg: 286.4 mg/dL
  Hb: 13.7 g/dL
  Ht: 40.4%
  Lym: 66.6%
  MCH: 21.2 pg
  MCHC: 34%
  MCV: 62.4 fL
  Mono: 3.2%
  Neu: 28.8%
  PT: 14.4 s
  Plat: 112.9 x10_4/uL
  RBC: 646.6 x10_4/ul
  Ret: 7.7%
  WBC: 98.8 x10_2/uL
  KIDNEY_L: 0.9 g
  KIDNEY_R: 0.9 g
  KIDNEY_TOTAL: 1.8 g
  LIVER: 7.4 g
  A/G: 0.9
  ALP: 1734.6 IU/L
  ALT: 37 IU/L
  AST: 77.6 IU/L
  BUN: 11.4 mg/dL
  CRE: 0.1 mg/dL
  Ca: 11.1 mg/dL
  Cl: 107 meq/L
  GLC: 128.4 mg/dL
  IP: 10.8 mg/dL
  K: 3.9 meq/L
  LDH: 73.4 IU/L
  Na: 146.2 meq/L
  PL: 105.6 mg/dL
  RALB: 2.7 g/dL
  TC: 53 mg/dL
  TG: 37 mg/dL
  TP: 5.8 g/dL
  gamma-GTP: 1.2 IU/L
[4]
  TERMINAL_BW: 207.8 g
  APTT: 14.8 s
  Bas: 0.4%
  Eos: 0.8%
  Fbg: 281 mg/dL
  Hb: 13.9 g/dL
  Ht: 41.1%
  Lym: 61.8%
  MCH: 21.2 pg
  MCHC: 33.8%
  MCV: 62.8 fL
  Mono: 3%
  Neu: 33.8%
  PT: 14.6 s
  Plat: 111.6 x10_4/uL
  RBC: 655.6 x10_4/ul
  Ret: 8.2%
  WBC: 80.5 x10_2/uL
  KIDNEY_L: 1 g
  KIDNEY_R: 0.9 g
  KIDNEY_TOTAL: 1.9 g
  LIVER: 7.4 g
  A/G: 0.9
  ALP: 1965.8 IU/L
  ALT: 44.6 IU/L
  AST: 75.4 IU/L
  BUN: 13.8 mg/dL
  CRE: 0.1 mg/dL
  Ca: 11.1 mg/dL
  Cl: 107.8 meq/L
  GLC: 142 mg/dL
  IP: 10.9 mg/dL
  K: 4 meq/L
  LDH: 68.6 IU/L
  Na: 146.2 meq/L
  PL: 102.8 mg/dL
  RALB: 2.6 g/dL
  TC: 45.8 mg/dL
  TG: 29 mg/dL
  TP: 5.7 g/dL
  gamma-GTP: 1 IU/L
[5]
  TERMINAL_BW: 210.6 g
  APTT: 14.3 s
  Bas: 0.8%
  Eos: 0.8%
  Fbg: 388 mg/dL
  Hb: 13.5 g/dL
  Ht: 40.1%
  Lym: 70.6%
  MCH: 21.3 pg
  MCHC: 33.8%
  MCV: 62.9 fL
  Mono: 3%
  Neu: 24.8%
  PT: 15 s
  Plat: 114.1 x10_4/uL
  RBC: 637.8 x10_4/ul
  Ret: 7.1%
  WBC: 120.4 x10_2/uL
  KIDNEY_L: 1 g
  KIDNEY_R: 1 g
  KIDNEY_TOTAL: 2 g
  LIVER: 8.4 g
  A/G: 0.9
  ALP: 2284.2 IU/L
  ALT: 41.2 IU/L
  AST: 66 IU/L
  BUN: 16.4 mg/dL
  CRE: 0.2 mg/dL
  Ca: 11.4 mg/dL
  Cl: 106.2 meq/L
  GLC: 164.6 mg/dL
  IP: 8.5 mg/dL
  K: 3.7 meq/L
  LDH: 142 IU/L
  Na: 145.4 meq/L
  PL: 104.6 mg/dL
  RALB: 2.6 g/dL
  TC: 47.4 mg/dL
  TG: 46.2 mg/dL
  TP: 5.6 g/dL
  gamma-GTP: 1 IU/L
[6]
  TERMINAL_BW: 207.1 g
  APTT: 15.4 s
  Bas: 0.8%
  Eos: 0.8%
  Fbg: 258.2 mg/dL
  Hb: 13.6 g/dL
  Ht: 39.9%
  Lym: 67.4%
  MCH: 20.6 pg
  MCHC: 34.1%
  MCV: 60.6 fL
  Mono: 3.2%
  Neu: 28%
  PT: 13.9 s
  Plat: 113.5 x10_4/uL
  RBC: 658.8 x10_4/ul
  Ret: 7.9%
  WBC: 76.3 x10_2/uL
  KIDNEY_L: 0.9 g
  KIDNEY_R: 0.9 g
  KIDNEY_TOTAL: 1.9 g
  LIVER: 7.7 g
  A/G: 0.9
  ALP: 1464.2 IU/L
  ALT: 41 IU/L
  AST: 75.6 IU/L
  BUN: 10.8 mg/dL
  CRE: 0.1 mg/dL
  Ca: 10.9 mg/dL
  Cl: 102.8 meq/L
  GLC: 181.8 mg/dL
  IP: 10.9 mg/dL
  K: 4.1 meq/L
  LDH: 88.2 IU/L
  Na: 143.4 meq/L
  PL: 93.4 mg/dL
  RALB: 2.6 g/dL
  TC: 52 mg/dL
  TG: 28.4 mg/dL
  TP: 5.5 g/dL
  gamma-GTP: 1.2 IU/L
[7]
  TERMINAL_BW: 206.9 g
  APTT: 15.5 s
  Bas: 0.8%
  Eos: 1%
  Fbg: 277.4 mg/dL
  Hb: 13.7 g/dL
  Ht: 40.6%
  Lym: 71.2%
  MCH: 21 pg
  MCHC: 33.6%
  MCV: 62.6 fL
  Mono: 3%
  Neu: 24%
  PT: 14.2 s
  Plat: 122.7 x10_4/uL
  RBC: 649.2 x10_4/ul
  Ret: 8.1%
  WBC: 106.2 x10_2/uL
  KIDNEY_L: 1 g
  KIDNEY_R: 1 g
  KIDNEY_TOTAL: 2 g
  LIVER: 7.4 g
  A/G: 0.9
  ALP: 1541.4 IU/L
  ALT: 36.4 IU/L
  AST: 76.2 IU/L
  BUN: 12 mg/dL
  CRE: 0.1 mg/dL
  Ca: 11.2 mg/dL
  Cl: 105.6 meq/L
  GLC: 133.2 mg/dL
  IP: 11.6 mg/dL
  K: 4 meq/L
  LDH: 92.8 IU/L
  Na: 145.4 meq/L
  PL: 105.2 mg/dL
  RALB: 2.6 g/dL
  TC: 49.8 mg/dL
  TG: 34.2 mg/dL
  TP: 5.6 g/dL
  gamma-GTP: 1 IU/L
[8]
  TERMINAL_BW: 209.9 g
  APTT: 21.5 s
  Bas: 0.6%
  Eos: 1%
  Fbg: 307.4 mg/dL
  Hb: 13.6 g/dL
  Ht: 39.9%
  Lym: 64.6%
  MCH: 20.7 pg
  MCHC: 34%
  MCV: 60.8 fL
  Mono: 3.2%
  Neu: 30.4%
  PT: 14.8 s
  Plat: 110.5 x10_4/uL
  RBC: 656.8 x10_4/ul
  Ret: 8.2%
  WBC: 93.3 x10_2/uL
  KIDNEY_L: 1 g
  KIDNEY_R: 0.9 g
  KIDNEY_TOTAL: 1.9 g
  LIVER: 7.5 g
  A/G: 0.9
  ALP: 1863.4 IU/L
  ALT: 41.8 IU/L
  AST: 82.2 IU/L
  BUN: 14.6 mg/dL
  CRE: 0.1 mg/dL
  Ca: 11.1 mg/dL
  Cl: 105.6 meq/L
  GLC: 144.6 mg/dL
  IP: 11.3 mg/dL
  K: 3.9 meq/L
  LDH: 80.8 IU/L
  Na: 145.6 meq/L
  PL: 105.8 mg/dL
  RALB: 2.7 g/dL
  TC: 45 mg/dL
  TG: 50.2 mg/dL
  TP: 5.7 g/dL
  gamma-GTP: 1 IU/L
[9]
  TERMINAL_BW: 211.9 g
  APTT: 15.6 s
  Bas: 1%
  Eos: 0.6%
  Fbg: 436 mg/dL
  Hb: 13.9 g/dL
  Ht: 40.7%
  Lym: 55.8%
  MCH: 20.5 pg
  MCHC: 34.1%
  MCV: 60.2 fL
  Mono: 3.4%
  Neu: 39%
  PT: 15.2 s
  Plat: 121.1 x10_4/uL
  RBC: 675.2 x10_4/ul
  Ret: 8.7%
  WBC: 138 x10_2/uL
  KIDNEY_L: 1 g
  KIDNEY_R: 1 g
  KIDNEY_TOTAL: 2 g
  LIVER: 8.4 g
  A/G: 0.8
  ALP: 2104 IU/L
  ALT: 41.6 IU/L
  AST: 62.2 IU/L
  BUN: 19.2 mg/dL
  CRE: 0.1 mg/dL
  Ca: 11.2 mg/dL
  Cl: 102.8 meq/L
  GLC: 145.8 mg/dL
  IP: 9.4 mg/dL
  K: 3.7 meq/L
  LDH: 131.8 IU/L
  Na: 141.2 meq/L
  PL: 91.4 mg/dL
  RALB: 2.6 g/dL
  TC: 38.2 mg/dL
  TG: 49.2 mg/dL
  TP: 5.7 g/dL
  gamma-GTP: 1 IU/L
